Consider 18 compounds from patent US9855268B2, “Triazolo[4,5-d]pyrimidine derivatives” (Merck Patent GmbH, priority 2013, dated 2018).

For assay [1], the target named is T1, GCN2 (Homo sapiens, UniProt Q9P2K8). The assay is described as follows: Cellular assay of GCN2 activity (phospho-eIF2alpha immunocytochemistry after tryptophanol). The assay is classed as cell-based. Also noted: endogenous in cells; host or cells: U2OS. As to conditions: Human U2OS cells, 2 h compound, 600 μM tryptophanol 30 min. Here is the method:
Cellular Assay for the Determination of Compound Activities
Human U2OS cells (2000 cells/well) are seeded into 384-well plates and incubated for 20 hours.
The next day, the cells are treated with the test compounds and incubated for 2 hours. Then, tryptophanol, at a final concentration of 600 μM, is added to the cells and those are incubated for 30 minutes.
The analysis of cellular GCN2 activities is done by immunocytochemistry.
Briefly, cells are fixated on the well surfaces by formaldehyde and permeabilised with Triton X-100.
The analysis and quantification of phosphorylated GCN2 is done by scanning the plates in the Acumen Explorer system (TTPLabtech). The obtained data are normalised against the untreated control wells (DMSO only) and expressed as % effect values. The determination of IC50 values is done by using the Graph Pad Prism software.
Target sequence in this assay (Q9P2K8 whole entry): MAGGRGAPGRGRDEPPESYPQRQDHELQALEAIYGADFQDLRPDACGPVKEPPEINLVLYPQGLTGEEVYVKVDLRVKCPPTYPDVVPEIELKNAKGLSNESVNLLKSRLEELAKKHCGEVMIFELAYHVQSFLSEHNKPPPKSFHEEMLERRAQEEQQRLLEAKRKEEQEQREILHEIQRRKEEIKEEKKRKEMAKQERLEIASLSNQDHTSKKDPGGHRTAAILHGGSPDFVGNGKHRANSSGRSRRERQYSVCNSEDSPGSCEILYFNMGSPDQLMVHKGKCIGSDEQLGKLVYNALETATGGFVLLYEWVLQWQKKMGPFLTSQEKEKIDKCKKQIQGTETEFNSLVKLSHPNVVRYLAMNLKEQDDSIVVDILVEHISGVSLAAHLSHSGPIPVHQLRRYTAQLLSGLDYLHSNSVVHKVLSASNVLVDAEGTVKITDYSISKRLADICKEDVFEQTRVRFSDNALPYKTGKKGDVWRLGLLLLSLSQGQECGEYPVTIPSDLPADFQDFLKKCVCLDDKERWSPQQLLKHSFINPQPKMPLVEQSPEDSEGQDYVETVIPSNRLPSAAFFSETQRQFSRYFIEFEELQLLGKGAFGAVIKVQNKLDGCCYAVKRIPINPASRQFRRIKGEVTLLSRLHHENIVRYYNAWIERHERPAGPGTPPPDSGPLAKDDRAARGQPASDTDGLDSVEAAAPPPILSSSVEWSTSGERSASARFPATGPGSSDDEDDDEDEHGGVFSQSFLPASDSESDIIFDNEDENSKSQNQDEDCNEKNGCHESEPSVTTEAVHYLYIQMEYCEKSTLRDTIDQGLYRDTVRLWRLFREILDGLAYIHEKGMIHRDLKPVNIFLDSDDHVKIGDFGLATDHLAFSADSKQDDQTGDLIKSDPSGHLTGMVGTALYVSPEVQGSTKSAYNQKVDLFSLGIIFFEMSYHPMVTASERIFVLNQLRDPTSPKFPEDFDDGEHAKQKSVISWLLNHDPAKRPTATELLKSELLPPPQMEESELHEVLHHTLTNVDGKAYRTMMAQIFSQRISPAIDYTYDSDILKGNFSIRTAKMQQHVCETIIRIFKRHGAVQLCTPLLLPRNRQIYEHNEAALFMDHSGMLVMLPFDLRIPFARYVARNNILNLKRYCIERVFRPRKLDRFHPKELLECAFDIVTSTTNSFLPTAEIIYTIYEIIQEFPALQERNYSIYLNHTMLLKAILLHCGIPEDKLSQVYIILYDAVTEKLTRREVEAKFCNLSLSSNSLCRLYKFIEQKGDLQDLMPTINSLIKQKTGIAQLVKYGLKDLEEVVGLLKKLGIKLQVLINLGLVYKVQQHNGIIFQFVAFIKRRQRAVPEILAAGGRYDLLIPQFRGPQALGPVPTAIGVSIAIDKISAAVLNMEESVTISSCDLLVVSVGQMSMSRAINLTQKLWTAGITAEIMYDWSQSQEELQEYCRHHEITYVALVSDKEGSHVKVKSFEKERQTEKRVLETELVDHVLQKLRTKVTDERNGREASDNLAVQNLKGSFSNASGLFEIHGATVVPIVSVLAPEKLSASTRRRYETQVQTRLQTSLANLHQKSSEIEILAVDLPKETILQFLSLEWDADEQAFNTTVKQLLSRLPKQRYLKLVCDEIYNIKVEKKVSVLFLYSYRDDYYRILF

In assay [2] the target is T1, GCN2. Kind of assay: GCN2 enzyme assay (TR-FRET Lanthascreen, GFP-eIF2alpha phosphorylation). It is filed as biochemical. As to conditions: 10 μM ATP, 80 nM GFP-eIF2a, 30 nM GCN2. Summed up:
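Kinase reaction with 10 μM ATP and 80 nM GFP-labelled eIF2alpha substrate at room temperature, stopped with EDTA. Phospho-eIF2alpha detected by TR-FRET between antibody and GFP-substrate, excitation at 340 nm.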
A general note: In TR-FRET formats the signal depends on donor and acceptor labels being close together.
Target sequence in this assay (Q9P2K8 whole entry, species assumed): as the sequence (Q9P2K8 whole entry) above

For assay [3], the target named is GSK3α(h) (Homo sapiens, UniProt P49840). Kind of assay: GSK3α radiometric kinase assay (33P-ATP, phospho GS2 peptide). It is filed as biochemical. As to conditions: read-out: IC50 GSK3α (enzyme assay). Here is the method: GSK3α(h) is incubated with 8 mM MOPS pH 7,0, 0,2 mM EDTA, 20 μM
[…](p)EDEEE (phosphor GS2 peptide), 10 mM Mg-acetate and [gamma-33P-ATP](specific activity approx. 500 cpm/Pmol, concentration as required). The reaction is initiated by the addition of the MgATP. After incubation for 40 minutes at the room temperature, the Reaction is stopped by the addition of 3% phosphoric acid solution. 10 μL of reaction is then spotted onto a P30 filtermat and washed three times for 5 minutes in 50 mM phosphoric acid and once in methanol prior to drying and scintillation counting.

Like-named read-outs stand apart in the source and are kept apart here.

GSK3α(h), sequence (P49840 whole entry): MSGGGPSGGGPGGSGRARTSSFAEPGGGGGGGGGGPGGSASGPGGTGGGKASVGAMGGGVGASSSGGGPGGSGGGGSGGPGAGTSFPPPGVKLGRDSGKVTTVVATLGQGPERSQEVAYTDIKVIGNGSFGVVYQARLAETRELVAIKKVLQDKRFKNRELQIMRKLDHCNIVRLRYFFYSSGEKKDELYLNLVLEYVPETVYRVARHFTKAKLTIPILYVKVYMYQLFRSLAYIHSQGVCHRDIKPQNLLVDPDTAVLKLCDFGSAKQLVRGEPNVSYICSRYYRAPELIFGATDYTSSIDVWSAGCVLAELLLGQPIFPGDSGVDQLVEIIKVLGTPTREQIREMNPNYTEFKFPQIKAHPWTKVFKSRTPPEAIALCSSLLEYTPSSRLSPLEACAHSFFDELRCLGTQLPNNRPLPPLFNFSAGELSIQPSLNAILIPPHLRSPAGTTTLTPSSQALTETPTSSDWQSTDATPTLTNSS

With `N[C@H]1CC[C@H](Nc2ncc3nnn(-c4ccc(OC5CCOCC5)cc4)c3n2)CC1` [A127, N-{3-[4-(tetrahydro-pyran-4-yloxy)-phenyl]-3H-[1,2,3]triazolo[4,5-d]pyrimidin-5-yl}-trans-cyclohexane-1,4-diamine], the IC50 (in general, the concentration that gives 50% inhibition) in assay [1] is 1000 to 5000 nM; in assay [2], below 1000 nM; in assay [3], below 1000 nM.

`NC(=O)[C@@H]1CC[C@@H](Nc2ncc3nnn(-c4ccc(-c5cnn(CCO)c5)cc4)c3n2)C1` [A255, (1R,3R)-3-(3-{4-[1-(2-hydroxy-ethyl)-1H-pyrazol-4-yl]-phenyl}-3H-[1,2,3]triazolo[4,5-d]pyridimdin-5-ylamino)-cyclopentanecarboxylic acid amide]: the concentration for half-maximal inhibition (IC50) was 1000 to 5000 nM in assay [1], below 1000 nM in assay [2] and below 1000 nM in assay [3] (10 μM ATP or Km ATP).

Regarding `Cn1cc(-c2ccc(-n3nnc4cnc(N[C@H]5CC[C@H](N)CC5)nc43)cc2)cn1` [A129, N-{3-[4-(1-methyl-1H-pyrazol-4-yl)-phenyl]-3H-[1,2,3]triazolo[4,5-d]pyrimidin-5-yl}-trans-cyclohexane-1,4-diamine], the IC50 in assay [1] is 1000 to 5000 nM; in assay [2], below 1000 nM; in assay [3] it was below 1000 nM.

Take `CN1CCN(CCNC(=O)[C@H]2CC[C@@H](Nc3ncc4nnn(-c5ccc6ncccc6c5)c4n3)C2)CC1` [A242, (1S,3R)-3-(3-quinolin-6-yl-3H-[1,2,3]triazolo[4,5-d]pyrimidin-5-ylamino)-cyclopentanecarboxylic acid [2-(4-methyl-piperazin-1-yl)-ethyl]-amide]: the half-inhibitory concentration (IC50) is 1000 to 5000 nM in assay [1], below 1000 nM in assay [2] and below 1000 nM in assay [3].

Regarding `Cc1nc2ccc(-n3nnc4cnc(N[C@@H]5CC[C@H](C(N)=O)C5)nc43)cc2o1` [A141, (1S,3R)-3-[3-(2-methyl-benzoxazol-6-yl)-3H-[1,2,3]triazolo[4,5-d]pyrimidin-5-ylamino]-cyclopentanecarboxylic acid amide], the concentration for half-maximal inhibition (IC50) in assay [1] was 5000 to 10000 nM; in assay [2] it was below 1000 nM; in assay [3], below 1000 nM.

In the case of `Cc1ccc2cc(-n3nnc4cnc(N[C@@H]5CC[C@@H](O)C5)nc43)ccc2n1` (relative stereo) [A202, (trans)-3-[3-(2-methyl-quinolin-6-yl)-3H-[1,2,3]triazolo[4,5-d]pyrimidin-5-ylamino]-cyclopentanol], the 50% inhibitory concentration (IC50) in assay [1] is 1000 to 5000 nM; in assay [2], below 1000 nM; in assay [3] it was below 1000 nM.

Turning to `NC(=O)[C@H]1CC[C@@H](Nc2ncc3nnn(-c4ccc5ncccc5c4)c3n2)C1` [A189, (1S,3R)-3-(3-quinolin-6-yl-3H-[1,2,3]triazolo[4,5-d]pyrimidin-5-ylamino)-cyclopentanecarboxylic acid amide], the concentration for half-maximal inhibition (IC50) in assay [1] was 1000 to 5000 nM; in assay [2] it was below 1000 nM; in assay [3] it was below 1000 nM.

Regarding `N#CCCn1cc(-c2ccc(-n3nnc4cnc(N[C@@H]5CC[C@@H](O)C5)nc43)cc2)cn1` (relative stereo) [A214, 3-(4-{4-[5-(trans-3-hydroxy-cyclopentylamino)-[1,2,3]triazolo[4,5-d]pyrimidin-3-yl]-phenyl}-pyrazol-1-yl)-propionitrile], the concentration for half-maximal inhibition (IC50) in assay [1] is 1000 to 5000 nM; in assay [2], below 1000 nM; in assay [3], below 1000 nM.

On to `NC(=O)[C@H]1CC[C@@H](Nc2ncc3nnn(-c4ccc(-c5cnn(CCO)c5)cc4)c3n2)C1` [A258, (1S,3R)-3-(3-{4-[1-(2-hydroxy-ethyl)-1H-pyrazol-4-yl]-phenyl}-3H-[1,2,3]triazolo[4,5-d]pyrimidin-5-ylamino)-cyclopentanecarboxylic acid amide], for which the IC50 in assay [1] is 1000 to 5000 nM; in assay [2] it was below 1000 nM; in assay [3], below 1000 nM.

For `CN1CCN(CCC(=O)N2CC[C@@H](Nc3ncc4nnn(-c5ccc(-c6cnn(C)c6)cc5)c4n3)C2)CC1` [A131, 3-(4-methyl-piperazin-1-yl)-1-((R)-3-{3-[4-(1-methyl-1H-pyrazol-4-yl)-phenyl]-3H-[1,2,3]triazolo[4,5-d]pyrimidin-5-ylamino}-pyrrolidin-1-yl)-propan-1-one], the results for the IC50 in assay [1], in assay [2] and in assay [3] were 5000 to 10000 nM, below 1000 nM and below 1000 nM, respectively.

As for `O[C@@H]1CC[C@@H](Nc2ncc3nnn(-c4ccc(OC[C@H](O)C(F)(F)F)cc4)c3n2)C1` (stereo in doubt) [A205, (trans)-3-{3-[4-((S)-3,3,3-trifluoro-2-hydroxy-propoxy)-phenyl]-3H-[1,2,3]triazolo[4,5-d]pyrimidin-5-ylamino}-cyclopentanol], the values for the IC50 in assay [1] and in assay [2] were 5000 to 10000 nM and below 1000 nM, respectively.

As for `Cc1ccc2cc(-n3nnc4cnc(N[C@@H]5CC[C@@H](C(=O)NCCC(C)(C)O)C5)nc43)ccc2n1` [A253, (1R,3R)-3-[3-(2-methyl-quinolin-6-yl)-3H-[1,2,3]triazolo[4,5-d]pyrimidin-5-ylamino]-cyclopentanecarboxylic acid (3-hydroxy-3-methyl-butyl)-amide], the IC50 in assay [1] and in assay [2] was below 1000 nM each time.

As to `O=c1cccnn1CCn1cc(-c2ccc(-n3nnc4cnc(N[C@@H]5CC[C@@H](O)C5)nc43)cc2)cn1` [A236, 2-[2-(4-{4-[5-((1R,3R)-3-hydroxy-cyclopentylamino)-[1,2,3]triazolo[4,5-d]-pyrimidin-3-yl]-phenyl}-pyrazol-1-yl)-ethyl]-2H-pyridazin-3-one], the results for the IC50 in assay [1] and in assay [2] were 5000 to 10000 nM and below 1000 nM, respectively.

Take `COC(=O)CCOc1ccc(-n2nnc3cnc(N[C@@H]4CC[C@@H](C(N)=O)C4)nc32)cc1` [A292, 3-{4-[5-((1R,3R)-3-carbamoyl-cyclopentylamino)-[1,2,3]triazolo[4,5-d]pyrimidin-3-yl]-phenoxy}-propionic acid methyl ester]: the IC50 was 1000 to 5000 nM in assay [1] and below 1000 nM in assay [2].

For `COc1ccc(-n2nnc3cnc(N[C@@H]4CC[C@@H](C(=O)N(C)C)C4)nc32)cc1` [A243, (1R,3R)-3-[3-(4-methoxy-phenyl)-3H-[1,2,3]triazolo[4,5-d]pyrimidin-5-ylamino]-cyclo pentanecarboxylic acid dimethylamide], the IC50 is 1000 to 5000 nM in assay [1] and below 1000 nM in assay [2].

As for `CCOc1ccc(-n2nnc3cnc(N[C@@H]4CC[C@@H](C(=O)N(C)CC(C)(C)O)C4)nc32)cc1` [A251, (1R,3R)-3-[3-(4-ethoxy-phenyl)-3H-[1,2,3]triazolo[4,5-d]pyrimidin-5-ylamino]-cyclopentanecarboxylic acid (2-hydroxy-2-methyl-propyl)-methyl-amide], the IC50 in assay [1] was 5000 to 10000 nM; in assay [2], below 1000 nM.

With `NC(=O)[C@@H]1CC[C@@H](Nc2ncc3nnn(-c4ccc(O)cc4)c3n2)C1` [A276, (1R,3R)-3-[3-(4-hydroxy-phenyl)-3H-[1,2,3]triazolo[4,5-d]pyrimidin-5-ylamino]-cyclopentanecarboxylic acid amide], the IC50 was 5000 to 10000 nM in assay [1] and below 1000 nM in assay [2].

`N[C@H]1CC[C@H](Nc2ncc3nnn(-c4ccc(N5CCOCC5)cc4)c3n2)CC1` [A64, N-[3-(4-morpholin-4-yl-phenyl)-3H-[1,2,3]triazolo[4,5-d]pyrimidin-5-yl]-cyclohexane-1,4-diamine]: the IC50 in assay [1] is 1000 to 5000 nM; in assay [2], below 1000 nM.
